The values below are quoted from earlier work in patent US20210322306A1, “ORAL DISSOLVABLE FILM WITH HIGH LOAD OF POLYMERIC BINDER” (CURE Pharmaceutical Holding Corp., priority 2020, published 2021).

For data set [1] the following is noted: neat binder.
For data set [2] the following is noted: neat binder. This is another data set of the same source.

`OC[C@H]1O[C@@H](O[C@H]2[C@H](O)[C@@H](O)C(O)O[C@@H]2CO)[C@H](O)[C@@H](O)[C@H]1O` (some centres unmarked) [Lactose]: in data set [1], the Polymeric Binder: Glass Transition Temperature (Tg) (determined by thermomechanical analysis (TMA)) is 95 °C. For the same compound, in data set [2], the Polymeric Binder: Glass Transition Temperature (Tg) (determined by differential scanning calorimetry (DSC)) was 102 °C.
